Source: ChEMBL document CHEMBL1201862, “PubChem BioAssay data set” (2004)
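Dose response: 5 concentrations. Exposure: 48 h. Format: 96-well plates. Endpoint: linear interpolation; highest concentration if not reached. GI50 is the concentration that inhibits growth by half.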 The source made the active and inactive calls. No stated cut-off is given here; in the data, active = GI50 up to about 1.1 µM and inactive = higher.

Legend:
Experiment in all cases: NCI anticancer screen, dose series, 48 h
A498 = tested on: A498
ACHN = tested on: ACHN
COLO 205 = tested on: COLO 205
HOP-62 = tested on: HOP-62
HT-29 = tested on: HT-29
Hs-578T = tested on: Hs-578T
KM12 = tested on: KM12
LOX IMVI = tested on: LOX IMVI
M14 = tested on: M14
MDA-MB-231 = tested on: MDA-MB-231
NCI/ADR-RES = tested on: NCI/ADR-RES
OVCAR-4 = tested on: OVCAR-4
SF-268 = tested on: SF-268
SK-OV-3 = tested on: SK-OV-3
SNB-75 = tested on: SNB-75
SW-620 = tested on: SW-620
TK-10 = tested on: TK-10
U-251 = tested on: U-251
UACC-257 = tested on: UACC-257
HOP-92 = tested on: HOP-92

Measured: GI50

CC(=O)OCC(OC(C)=O)C(OC(C)=O)C(OC(C)=O)C(C=NN(C(C)=O)S(=O)(=O)c1ccc(/C=C2\NC(=O)NC2=O)cc1)OC(C)=O (centres undefined)
inactive: A498 > 100 µM | ACHN > 100 µM | COLO 205 > 100 µM | HOP-62 > 100 µM | HT-29 > 100 µM | Hs-578T > 100 µM | KM12 > 100 µM | LOX IMVI > 100 µM | M14 > 100 µM | MDA-MB-231 > 100 µM | NCI/ADR-RES > 100 µM | OVCAR-4 > 100 µM | SF-268 > 100 µM | SK-OV-3 > 100 µM | SNB-75 > 100 µM | SW-620 > 100 µM | TK-10 > 100 µM | U-251 > 100 µM | UACC-257 > 100 µM

C=CC1(c2ccc(Cl)c(Cl)c2)OCCO1
inactive: ACHN > 100 µM | COLO 205 > 100 µM | HOP-62 10.8 µM | HOP-92 23.2 µM | HT-29 88.5 µM | Hs-578T 40.8 µM | KM12 > 100 µM | LOX IMVI > 100 µM | M14 > 100 µM | MDA-MB-231 1.83 µM | NCI/ADR-RES > 100 µM | OVCAR-4 > 100 µM | SF-268 > 100 µM | SK-OV-3 > 100 µM | SNB-75 1.48 µM | SW-620 > 100 µM | TK-10 > 100 µM | U-251 > 100 µM | UACC-257 > 100 µM

O=C1/C(=C\c2ccc(Cl)cc2Cl)Sc2scc(-c3ccc(O)c(O)c3)[n+]21
inactive: ACHN 18.8 µM | COLO 205 19 µM | HOP-62 15.6 µM | HOP-92 7.76 µM | HT-29 16.7 µM | Hs-578T 27.2 µM | KM12 15.1 µM | LOX IMVI 16.4 µM | M14 16.3 µM | MDA-MB-231 16.5 µM | NCI/ADR-RES 15.1 µM | OVCAR-4 13.4 µM | SF-268 30.3 µM | SK-OV-3 15.8 µM | SNB-75 21.8 µM | SW-620 14 µM | TK-10 12.7 µM | U-251 11.9 µM | UACC-257 18.8 µM

COc1ccc(N2C(=O)c3cc([N+](=O)[O-])cnc3S2(=O)=O)cc1
inactive: ACHN > 100 µM | COLO 205 > 100 µM | HOP-62 > 100 µM | HOP-92 > 100 µM | HT-29 > 100 µM | Hs-578T > 100 µM | KM12 > 100 µM | LOX IMVI > 100 µM | MDA-MB-231 > 100 µM | NCI/ADR-RES > 100 µM | OVCAR-4 > 100 µM | SF-268 > 100 µM | SK-OV-3 > 100 µM | SNB-75 > 100 µM | SW-620 > 100 µM | TK-10 > 100 µM | U-251 > 100 µM

Oc1ccc(C(c2ccc(O)cc2)c2ccc(O)cc2)cc1
inactive: A498 15.8 µM | ACHN 27.3 µM | COLO 205 7.16 µM | HOP-92 18.1 µM | HT-29 19 µM | Hs-578T 21.7 µM | KM12 16.7 µM | LOX IMVI 19.3 µM | MDA-MB-231 16.3 µM | NCI/ADR-RES 18.9 µM | OVCAR-4 9.71 µM | SF-268 32.1 µM | SK-OV-3 14 µM | SW-620 26.8 µM | TK-10 22.8 µM | U-251 23.2 µM | UACC-257 20.4 µM

Cc1cccc2oc3c(CC(=O)O)cccc3c(=O)c12
inactive: A498 > 100 µM | ACHN > 100 µM | COLO 205 > 100 µM | HOP-62 > 100 µM | HOP-92 > 100 µM | HT-29 > 100 µM | Hs-578T > 100 µM | KM12 > 100 µM | LOX IMVI > 100 µM | M14 > 100 µM | MDA-MB-231 > 100 µM | NCI/ADR-RES > 100 µM | OVCAR-4 > 100 µM | SF-268 > 100 µM | SW-620 > 100 µM | TK-10 > 100 µM | U-251 > 100 µM | UACC-257 > 100 µM

O=C(CCc1ccc(O)cc1)NCCc1ccc(O)cc1
inactive: A498 > 100 µM | ACHN 62.4 µM | COLO 205 > 100 µM | HOP-62 > 100 µM | HOP-92 > 100 µM | HT-29 > 100 µM | Hs-578T > 100 µM | KM12 > 100 µM | LOX IMVI > 100 µM | M14 > 100 µM | MDA-MB-231 > 100 µM | NCI/ADR-RES > 100 µM | OVCAR-4 > 100 µM | SF-268 > 100 µM | SK-OV-3 > 100 µM | TK-10 > 100 µM | U-251 > 100 µM | UACC-257 > 100 µM

COC1CC2C=CC3C4OC2(/C(C)=C/C(C)C(C(C)O)OC1=O)C3C(O)C(C)C4OC(=O)c1ccc[nH]1 (centres undefined)
inactive: A498 > 100 µM | ACHN > 100 µM | COLO 205 > 100 µM | HOP-62 > 100 µM | HOP-92 > 100 µM | HT-29 66.8 µM | Hs-578T 94 µM | KM12 21 µM | LOX IMVI 64 µM | M14 > 100 µM | MDA-MB-231 > 100 µM | NCI/ADR-RES 66.2 µM | OVCAR-4 74 µM | SF-268 > 100 µM | SW-620 > 100 µM | TK-10 > 100 µM | U-251 96.2 µM | UACC-257 57.8 µM

CN(CCSCCN(C)C(=O)OC(C)(C)C)C(=O)OC(C)(C)C
inactive: ACHN > 100 µM | COLO 205 > 100 µM | HOP-62 > 100 µM | HOP-92 > 100 µM | HT-29 > 100 µM | Hs-578T > 100 µM | KM12 > 100 µM | LOX IMVI > 100 µM | M14 > 100 µM | MDA-MB-231 > 100 µM | NCI/ADR-RES > 100 µM | OVCAR-4 > 100 µM | SF-268 > 100 µM | SK-OV-3 > 100 µM | SNB-75 61.5 µM | SW-620 > 100 µM | TK-10 > 100 µM | U-251 > 100 µM | UACC-257 > 100 µM

Nc1ccc(I)cn1
inactive: A498 > 100 µM | ACHN > 100 µM | COLO 205 > 100 µM | HOP-62 > 100 µM | HT-29 > 100 µM | Hs-578T > 100 µM | KM12 > 100 µM | LOX IMVI > 100 µM | M14 > 100 µM | MDA-MB-231 > 100 µM | NCI/ADR-RES > 100 µM | OVCAR-4 > 100 µM | SF-268 > 100 µM | SK-OV-3 > 100 µM | SNB-75 > 100 µM | SW-620 > 100 µM | U-251 > 100 µM

CC(Br)CN1CCOCC1 (centres undefined)
inactive: A498 > 100 µM | ACHN > 100 µM | COLO 205 > 100 µM | HOP-62 > 100 µM | HOP-92 > 100 µM | HT-29 > 100 µM | Hs-578T > 100 µM | KM12 > 100 µM | LOX IMVI > 100 µM | M14 > 100 µM | MDA-MB-231 > 100 µM | NCI/ADR-RES > 100 µM | SF-268 > 100 µM | SK-OV-3 > 100 µM | SW-620 > 100 µM | TK-10 > 100 µM | U-251 > 100 µM | UACC-257 > 100 µM

Cc1cc(O)c2c(c1O)C(=O)c1cccc(O)c1C2=O [ISLANDICIN]
inactive: ACHN > 100 µM | HOP-62 > 100 µM | HOP-92 > 100 µM | HT-29 > 100 µM | Hs-578T > 100 µM | KM12 > 100 µM | LOX IMVI > 100 µM | M14 > 100 µM | MDA-MB-231 > 100 µM | NCI/ADR-RES > 100 µM | OVCAR-4 > 100 µM | SF-268 > 100 µM | SK-OV-3 > 100 µM | SNB-75 43.1 µM | SW-620 > 100 µM | TK-10 > 100 µM | U-251 > 100 µM | UACC-257 > 100 µM

CCCCCc1nnc(NS(=O)(=O)c2ccc(NC(=O)OCC(C)C)cc2)s1
inactive: A498 2.64 µM | ACHN 34.7 µM | COLO 205 18.5 µM | HOP-62 44.5 µM | HOP-92 24.1 µM | HT-29 26.8 µM | Hs-578T 51.2 µM | KM12 36.1 µM | LOX IMVI 37.2 µM | M14 41.9 µM | MDA-MB-231 36.2 µM | NCI/ADR-RES 39.4 µM | OVCAR-4 26.1 µM | SF-268 41.9 µM | SK-OV-3 31.5 µM | SW-620 40.6 µM | TK-10 36.9 µM | U-251 42.9 µM | UACC-257 79.6 µM

COc1cc(/C=C2/SC(c3ccccc3)N(Cc3ccccc3)C2=O)cc(OC)c1OC (centres undefined)
inactive: A498 49.1 µM | ACHN 44.8 µM | COLO 205 19.8 µM | HOP-62 54.3 µM | HOP-92 32.8 µM | HT-29 25.9 µM | Hs-578T 40.6 µM | KM12 27.2 µM | LOX IMVI 34.8 µM | M14 75.3 µM | MDA-MB-231 > 100 µM | NCI/ADR-RES 35 µM | OVCAR-4 31.4 µM | SF-268 48.1 µM | SK-OV-3 41.1 µM | SW-620 63.2 µM | TK-10 53 µM | U-251 36.7 µM | UACC-257 33.7 µM

Cc1nn(CN2CCN(C)CC2)c(=S)n1/N=C/c1ccc(-c2ccc(Cl)cc2Cl)o1
inactive: A498 19.2 µM | ACHN > 100 µM | COLO 205 > 100 µM | HOP-62 > 100 µM | HOP-92 > 100 µM | HT-29 89.1 µM | Hs-578T > 100 µM | KM12 > 100 µM | LOX IMVI 60.7 µM | M14 > 100 µM | MDA-MB-231 63.8 µM | NCI/ADR-RES 62.7 µM | OVCAR-4 37.4 µM | SF-268 92.5 µM | SK-OV-3 > 100 µM | SW-620 42.7 µM | TK-10 43.9 µM | U-251 32.8 µM | UACC-257 66.7 µM
